{
  "source": "patent US20090099195A1",
  "about": "(ASTRAZENECA AB, priority 2007, published 2009)",
  "key": {"[1]": {"target": "T1, hP2X3 (human Purinergic P2X receptors subtype 3), clone A (Homo sapiens, UniProt P56373)", "T1 sequence (P56373 1-397)": "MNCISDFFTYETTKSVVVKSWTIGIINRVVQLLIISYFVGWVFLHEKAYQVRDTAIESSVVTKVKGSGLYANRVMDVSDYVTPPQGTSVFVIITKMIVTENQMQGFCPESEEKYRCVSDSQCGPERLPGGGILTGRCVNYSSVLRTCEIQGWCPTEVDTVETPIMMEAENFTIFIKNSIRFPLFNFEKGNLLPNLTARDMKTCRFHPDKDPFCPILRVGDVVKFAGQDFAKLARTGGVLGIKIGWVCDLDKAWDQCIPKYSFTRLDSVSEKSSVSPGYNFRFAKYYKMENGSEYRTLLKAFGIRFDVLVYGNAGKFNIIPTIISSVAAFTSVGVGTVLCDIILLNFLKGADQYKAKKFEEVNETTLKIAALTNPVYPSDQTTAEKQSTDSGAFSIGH", "assay": "hP2X3 FLIPR calcium (Fluo-4) antagonist assay, clone A", "settings": "Human P2X3 FLIPR Clone A Mean IC50 (nM), RLE cells expressing hP2X3 clone A (AB016608); agonist 500 nM α,β-methylene-ATP"}, "[2]": {"target": "T2, hP2X3 (human Purinergic P2X receptors subtype 3), clone B (Homo sapiens, UniProt P56373)", "T2 sequence (P56373 1-397)": "T1 sequence (P56373 1-397)", "assay": "hP2X3 FLIPR calcium (Fluo-4) antagonist assay, clone B", "settings": "Human P2X3 FLIPR Clone B IC50 (nM), RLE cells expressing hP2X3 clone B (NM_002559); agonist 500 nM α,β-methylene-ATP"}},
  "data": [
    {"smiles": "CC(=O)N1CCN(c2nc(N[C@H](C)c3ccc(C4CC4)cc3)c3c(n2)C(=O)N(C(C)C)C3)CC1", "note": "[Example 192, (R)-2-(4-acetylpiperazin-1-yl)-4-(1-(4-cyclopropylphenyl)ethylamino)-6-isopropyl-5H-pyrrolo[3,4-d]pyrimidin-7(6H)-one]", "values": [
      {"measurement": "IC50", "setting": "[1]", "result": 102, "unit": "nM"}
    ]},
    {"smiles": "CCCOc1ccc([C@@H](C)Nc2nc(N3CCN(C(C)=O)CC3)nc3c2CN(C(C)C)C3=O)cc1F", "note": "[Example 193, (R)-2-(4-acetylpiperazin-1-yl)-4-(1-(3-fluoro-4-propoxyphenyl)ethylamino)-6-isopropyl-5H-pyrrolo[3,4-d]pyrimidin-7(6H)-one]", "values": [
      {"measurement": "IC50", "setting": "[1]", "result": 235, "unit": "nM"}
    ]},
    {"smiles": "CCOc1ncc([C@@H](C)Nc2nc(N3CCN(C(C)=O)CC3)nc3c2CN(C(C)C)C3=O)cc1Cl", "note": "[Example 194, (R)-2-(4-acetylpiperazin-1-yl)-4-(1-(5-chloro-6-ethoxypyridin-3-yl)ethylamino)-6-isopropyl-5H-pyrrolo[3,4-d]pyrimidin-7(6H)-one]", "values": [
      {"measurement": "IC50", "setting": "[1]", "result": 283, "unit": "nM"}
    ]},
    {"smiles": "CC(=O)N1CCN(c2nc(NC(C)c3nc4ccccc4s3)c3c(n2)C(=O)N(C(C)C)C3)CC1", "note": "(stereo not drawn) [Example 236, 2-(4-acetylpiperazin-1-yl)-4-(1-(benzo[d]thiazol-2-yl)ethylamino)-6-isopropyl-5H-pyrrolo[3,4-d]pyrimidin-7(6H)-one]", "values": [
      {"measurement": "IC50", "setting": "[1]", "result": 564, "unit": "nM"}
    ]},
    {"smiles": "CC(=O)N1CCN(c2nc3c(c(N4CCCC4c4ccc(C)c(C)c4)n2)CN(C(C)C)C3=O)CC1", "note": "(stereo not drawn) [Example 298, 2-(4-acetylpiperazin-1-yl)-4-[2-(3,4-dimethylphenyl)pyrrolidin-1-yl]-6-(1-methylethyl)-5,6-dihydro-7H-pyrrolo[3,4-d]pyrimidin-7-one]", "values": [
      {"measurement": "IC50", "setting": "[1]", "result": 454, "unit": "nM"}
    ]},
    {"smiles": "COc1ccc(C2CCCN2c2nc(N3CCN(C(C)=O)CC3)nc3c2CN(C(C)C)C3=O)cc1", "note": "(stereo not drawn) [Example 299, 2-(4-acetylpiperazin-1-yl)-4-[2-(4-methoxyphenyl)pyrrolidin-1-yl]-6-(1-methylethyl)-5,6-dihydro-7H-pyrrolo[3,4-d]pyrimidin-7-one]", "values": [
      {"measurement": "IC50", "setting": "[1]", "result": 1140, "unit": "nM"}
    ]},
    {"smiles": "CCOc1ccc([C@H]2CCCN2c2nc(N3CCN(C(C)=O)CC3)nc3c2CN(C(C)C)C3=O)cc1F", "note": "[Example 300, 2-(4-acetylpiperazin-1-yl)-4-[(2R)-2-(4-ethoxy-3-fluorophenyl)pyrrolidin-1-yl]-6-(1-methylethyl)-5,6-dihydro-7H-pyrrolo[3,4-d]pyrimidin-7-one]", "values": [
      {"measurement": "IC50", "setting": "[1]", "result": 192, "unit": "nM"}
    ]},
    {"smiles": "CC(=O)N1CCN(c2nc3c(c(N4CCC[C@@H]4C(=O)N4CCC(C)CC4)n2)CN(C(C)C)C3=O)CC1", "note": "[Example 303, 4-(4-acetylpiperazin-1-yl)-2-[(2R)-2-(4-methylpiperidine-1-carbonyl)pyrrolidin-1-yl]-8-propan-2-yl-3,5,8-triazabicyclo[4.3.0]nona-2,4,10-trien-7-one]", "values": [
      {"measurement": "IC50", "setting": "[2]", "result": 2300, "unit": "nM"}
    ]},
    {"smiles": "CC(=O)N1CCN(c2nc(NC(C)(C)Cc3ccc(F)cc3)c3c(n2)C(=O)N(C2CCOCC2)C3)CC1", "note": "[Example 305, 3-(4-acetylpiperazin-1-yl)-5-[[1-(4-fluorophenyl)-2-methyl-propan-2-yl]amino]-8-(oxan-4-yl)-2,4,8-triazabicyclo[4.3.0]nona-1,3,5-trien-9-one]", "values": [
      {"measurement": "IC50", "setting": "[2]", "result": 2400, "unit": "nM"}
    ]},
    {"smiles": "CCC(C)N1Cc2c(NC(C)(C)Cc3ccc(F)cc3)nc(N3CCN(C(C)=O)CC3)nc2C1=O", "note": "(stereo not drawn) [Example 312, 2-(4-acetylpiperazin-1-yl)-6-sec-butyl-4-(1-(4-fluorophenyl)-2-methylpropan-2-ylamino)-5H-pyrrolo[3,4-d]pyrimidin-7(6H)-one]", "values": [
      {"measurement": "IC50", "setting": "[2]", "result": 160, "unit": "nM"}
    ]},
    {"smiles": "CC(=O)N1CCN(c2nc(NC(C)(C)Cc3ccc(F)cc3)c3c(n2)C(=O)N(C(C)C(C)C)C3)CC1", "note": "(stereo not drawn) [Example 313, 2-(4-acetylpiperazin-1-yl)-4-(1-(4-fluorophenyl)-2-methylpropan-2-ylamino)-6-(3-methylbutan-2-yl)-5H-pyrrolo[3,4-d]pyrimidin-7(6H)-one]", "values": [
      {"measurement": "IC50", "setting": "[2]", "result": 280, "unit": "nM"}
    ]},
    {"smiles": "COCC(C)N1Cc2c(NC(C)(C)Cc3ccc(F)cc3)nc(N3CCN(C(C)=O)CC3)nc2C1=O", "note": "(stereo not drawn) [Example 314, 2-(4-acetylpiperazin-1-yl)-4-(1-(4-fluorophenyl)-2-methylpropan-2-ylamino)-6-(1-methoxypropan-2-yl)-5H-pyrrolo[3,4-d]pyrimidin-7(6H)-one]", "values": [
      {"measurement": "IC50", "setting": "[2]", "result": 670, "unit": "nM"}
    ]},
    {"smiles": "CC(=O)N1CCN(c2nc(NC(C)(C)Cc3ccc(F)cc3)c3c(n2)C(=O)N(Cc2ccccc2Cl)C3)CC1", "note": "[Example 315, 2-(4-acetylpiperazin-1-yl)-6-(2-chlorobenzyl)-4-(1-(4-fluorophenyl)-2-methylpropan-2-ylamino)-5H-pyrrolo[3,4-d]pyrimidin-7(6H)-one]", "values": [
      {"measurement": "IC50", "setting": "[2]", "result": 3000, "unit": "nM"}
    ]},
    {"smiles": "CC(=O)N1CCN(c2nc(N[C@H](C)c3ccc(OCC4CC4)c(F)c3)c3c(n2)C(=O)N(C(C)C)C3)CC1", "note": "[Example 322, (R)-2-(4-acetylpiperazin-1-yl)-4-(1-(4-(cyclopropylmethoxy)-3-fluorophenyl)ethylamino)-6-isopropyl-5H-pyrrolo[3,4-d]pyrimidin-7(6H)-one]", "values": [
      {"measurement": "IC50", "setting": "[1]", "result": 1900, "unit": "nM"}
    ]},
    {"smiles": "CC(=O)N1CCN(c2nc(NCc3ccc4c(c3)CC(C)O4)c3c(n2)C(=O)N(C(C)C)C3)CC1", "note": "(stereo not drawn) [Example 323, 2-(4-acetylpiperazin-1-yl)-6-isopropyl-4-((2-methyl-2,3-dihydrobenzofuran-5-yl)methylamino)-5H-pyrrolo[3,4-d]pyrimidin-7(6H)-one]", "values": [
      {"measurement": "IC50", "setting": "[1]", "result": 410, "unit": "nM"}
    ]},
    {"smiles": "CC(=O)N1CCN(c2nc(NC(C)c3ccc4c(c3)CC(C)O4)c3c(n2)C(=O)N(C(C)C)C3)CC1", "note": "(stereo not drawn) [Example 324, 2-(4-acetylpiperazin-1-yl)-6-isopropyl-4-(1-(2-methyl-2,3-dihydrobenzofuran-5-yl)ethylamino)-5H-pyrrolo[3,4-d]pyrimidin-7(6H)-one]", "values": [
      {"measurement": "IC50", "setting": "[1]", "result": 179, "unit": "nM"}
    ]},
    {"smiles": "CC(=O)N(Cc1cc2ccccc2cn1)c1nc(N2CCN(C(C)=O)[C@@H](C)C2)nc2c1CN(C(C)C)C2=O", "note": "[Example 325, (S)—N-(2-(4-acetyl-3-methylpiperazin-1-yl)-6-isopropyl-7-oxo-6,7-dihydro-5H-pyrrolo[3,4-d]pyrimidin-4-yl)-N-(isoquinolin-3-ylmethyl)acetamide]", "values": [
      {"measurement": "IC50", "setting": "[2]", "result": 380, "unit": "nM"}
    ]},
    {"smiles": "CC(=O)N(Cc1cc2ccccc2cn1)c1nc(N2CCN(C(C)=O)[C@H](C)C2)nc2c1CN(C(C)C)C2=O", "note": "[Example 326, (R)—N-(2-(4-acetyl-3-methylpiperazin-1-yl)-6-isopropyl-7-oxo-6,7-dihydro-5H-pyrrolo[3,4-d]pyrimidin-4-yl)-N-(isoquinolin-3-ylmethyl)acetamide]", "values": [
      {"measurement": "IC50", "setting": "[2]", "result": 590, "unit": "nM"}
    ]},
    {"smiles": "CC(=O)N1CCN(c2nc(NCc3cnc4ccccc4c3)c3c(n2)C(=O)N(C(C)C)C3)C[C@@H]1C", "note": "[Example 327, (S)-2-(4-acetyl-3-methylpiperazin-1-yl)-6-isopropyl-4-(quinolin-3-ylmethylamino)-5H-pyrrolo[3,4-d]pyrimidin-7(6H)-one]", "values": [
      {"measurement": "IC50", "setting": "[2]", "result": 91, "unit": "nM"}
    ]},
    {"smiles": "CC(=O)N1CCN(c2nc(NCc3cnc4ccccc4c3)c3c(n2)C(=O)N(C(C)C)C3)C[C@H]1C", "note": "[Example 328, (R)-2-(4-acetyl-3-methylpiperazin-1-yl)-6-isopropyl-4-(quinolin-3-ylmethylamino)-5H-pyrrolo[3,4-d]pyrimidin-7(6H)-one]", "values": [
      {"measurement": "IC50", "setting": "[2]", "result": 62, "unit": "nM"}
    ]},
    {"smiles": "CC(C)N1Cc2c(NCc3cnc4ccccc4c3)nc(N3CCN(S(C)(=O)=O)CC3)nc2C1=O", "note": "[Example 329, 6-(1-methylethyl)-2-[4-(methylsulfonyl)piperazin-1-yl]-4-[(quinolin-3-ylmethyl)amino]-5,6-dihydro-7H-pyrrolo[3,4-d]pyrimidin-7-one]", "values": [
      {"measurement": "IC50", "setting": "[2]", "result": 8900, "unit": "nM"}
    ]},
    {"smiles": "CCOc1ncc([C@@H](C)Nc2nc(N3CCN(C(C)=O)CC3)nc3c2CN(C(C)C)C3=O)cc1C", "note": "[Example 331, (R)-2-(4-acetylpiperazin-1-yl)-4-(1-(6-ethoxy-5-methylpyridin-3-yl)ethylamino)-6-isopropyl-5H-pyrrolo[3,4-d]pyrimidin-7(6H)-one]", "values": [
      {"measurement": "IC50", "setting": "[1]", "result": 195, "unit": "nM"}
    ]},
    {"smiles": "CC(=O)N1CCN(c2nc(N[C@H](C)c3ccc(CO)cc3)c3c(n2)C(=O)N(C(C)C)C3)CC1", "note": "[Example 332, (R)-2-(4-acetylpiperazin-1-yl)-4-(1-(4-(hydroxymethyl)phenyl)ethylamino)-6-isopropyl-5H-pyrrolo[3,4-d]pyrimidin-7(6H)-one]", "values": [
      {"measurement": "IC50", "setting": "[1]", "result": "> 30000", "unit": "nM"}
    ]},
    {"smiles": "CC(=O)N1CCN(c2nc(NC(C)(C)Cc3cccc(C)c3)c3c(n2)C(=O)N(C(C)C)C3)CC1", "note": "[Example 333, 2-(4-acetylpiperazin-1-yl)-6-isopropyl-4-(2-methyl-1-m-tolylpropan-2-ylamino)-5H-pyrrolo[3,4-d]pyrimidin-7(6H)-one]", "values": [
      {"measurement": "IC50", "setting": "[2]", "result": 830, "unit": "nM"}
    ]},
    {"smiles": "CC(=O)N1CCN(c2nc3c(c(N(C)Cc4cnc5ccccc5c4)n2)CN(C(C)C)C3=O)CC1", "note": "[Example 346, 2-(4-acetylpiperazin-1-yl)-6-isopropyl-4-(methyl(quinolin-3-ylmethyl)amino)-5H-pyrrolo[3,4-d]pyrimidin-7(6H)-one]", "values": [
      {"measurement": "IC50", "setting": "[2]", "result": 47, "unit": "nM"}
    ]},
    {"smiles": "CC(=O)N1CCN(c2nc3c(c(N(C)Cc4cc5ccccc5nc4C)n2)CN(C(C)C)C3=O)CC1", "note": "[Example 347, 2-(4-acetylpiperazin-1-yl)-6-isopropyl-4-(methyl((2-methylquinolin-3-yl)methyl)amino)-5H-pyrrolo[3,4-d]pyrimidin-7(6H)-one]", "values": [
      {"measurement": "IC50", "setting": "[2]", "result": 2900, "unit": "nM"}
    ]},
    {"smiles": "CC(=O)N1CCN(c2nc(NCc3cnc4ccccc4c3)c3c(n2)C(=O)N(C(C)C)C3)C(C)C1", "note": "(stereo not drawn) [Example 352, 2-(4-Acetyl-2-methylpiperazin-1-yl)-6-isopropyl-4-(quinolin-3-ylmethylamino)-5H-pyrrolo[3,4-d]pyrimidin-7(6M)-one]", "values": [
      {"measurement": "IC50", "setting": "[2]", "result": 200, "unit": "nM"}
    ]}
  ]
}
